Assay results reported in article PMC8725448 (Journal of Cannabis Research, 2022).
“Also recorded” adds a separate entry of the source. Where two headings read alike, the source gives them in different places.

Legend:
CaV3.3 = target: T1, CaV3.3 (Homo sapiens, UniProt Q9P0X4); assay: Measurement of intracellular calcium, CaV3.3; type: cell-based; settings: 10 μM; HEK293 cells expressing human CaV3.3
T1 construct: expressed in transfected cells; host or cells: Flp-In T-REx HEK (tetracycline-induced)
Description: (§1) Changes in intracellular calcium concentrations were measured in Flp-In™ T-REx™ HEK stably expressing either CaV3.1, CaV3.2, or CaV3.3 using Calcium 5 dye (Molecular Devices; Sunnyvale, USA) as previously described (Bladen et al. [2021]). Briefly, cells (120,000/well) were plated into a black, clear-bottomed poly-D-lysine coated, 96-well plate in the presence of 2 μg/mL tetracycline to induce channel expression and incubated overnight at 37°C in ambient CO2. Calcium 5 dye was diluted in HEPES-buffered low potassium Hanks Balanced Salt Solution (HBSS) at 50% of manufacturer’s recommendation. Dye solution containing probenecid (2.5 mM) was added and incubated for 60 min at 37°C in ambient CO2. Compounds were prepared as stock solutions in DMSO and diluted in HBSS with 0.01% bovine serum albumin. Compounds were applied for 5 min, then 10 mM CaCl2 was added. A FlexStation 3 Microplate reader (Molecular Devices; San Jose, USA) was used to take fluorescence readings every 2 s (excitation 485 nm, emission 525 nm). Baseline recordings were taken as the average fluorescence over 20 s preceding CaCl2 addition. Changes in fluorescence were measured as the maximal increase in fluorescence from baseline following CaCl2 addition and normalized to the response of vehicle. CaCl2 addition produced no effect in non-induced cells (Supplemental Fig. 2). Final drug concentrations had ≤ 0.1% DMSO. […]

[1] = Pharmacokinetic analysis in mouse plasma and brain after i.p. injection; type: in vivo; settings: for Kp: brain/plasma; for Kp / Cmax / AUC / Tmax / half-life: 10 mg/kg, mouse; for Kp / Cmax: i.p.
Description: Wildtype mice (postnatal day 21-28, P21-28) received an i.p. injection of 10 mg/kg CBGA methyl ester or olivetolic acid. At selected time points (15–120 min) mice were anesthetized with isoflurane, whole blood was collected by cardiac puncture and brains were harvested. The plasma was isolated by centrifugation and samples were stored at −80°C until assayed. Concentrations in the plasma and brain samples at each time point were averaged, and pharmacokinetic parameters were calculated by noncompartmental analysis as previously described (Hawkins et al. [2017]).
(§2) The plasma and brain samples were prepared for LC-MS/MS analysis as previously described (Anderson et al. [2019b], [2020]). Briefly, acetonitrile was used to precipitate proteins and extract CBGA methyl ester and olivetolic acid from the biological matrices. The brain samples were additionally filtered through Amicon Ultracel 3K (Merck-Millipore; Burlington, USA) filtration devices. The plasma and brain samples underwent supported-liquid extraction with methyl tert-butyl ether using Biotage Isolute SLE+ columns (Uppsala, SWE) and were then evaporated to dryness with N2. Residues were reconstituted in actetonitrile and 0.1% formic acid in water (1:1, v/v) for analysis using a Shimadzu Nexera ultra-HPLC coupled to a Shimadzu 8030 triple quadrupole mass spectrometer (Shimadzu Corp.; Kyoto, JPN). The mass spectrometer was operated in positive electrospray ionization mode for CBGA methyl ester and negative electrospray ionization mode for olivetolic acid with multiple reaction monitoring and the following mass transition pairs (m/z): 375.20 > 343.25, 375.20 > 219.10 and 375.20 > 251.15 (CBGA-methylester) and 223.25 > 179.25 (olivetolic acid). Quantification of analytes in the plasma and brain samples was achieved by comparing samples to standards prepared with known amounts of compound.

CaV3.1 = target: T2, CaV3.1 (Homo sapiens, UniProt O43497); assay: Measurement of intracellular calcium, CaV3.1; type: cell-based; settings: 10 μM; HEK293 cells expressing human CaV3.1
T2 construct: expressed in transfected cells; host or cells: Flp-In T-REx HEK (tetracycline-induced)
Description: as §1

[2] = Plasma concentrations in experimental Scn1a+/- mice after hyperthermia protocol; type: in vivo, mouse
Description: as §2
Hyperthermia-induced seizure experiments were conducted on male and female Scn1a^+/- mice at P14-16 as previously described (Hawkins et al. [2017]). No significant sex differences were observed so males and females were combined across groups. Briefly, for CBGA methyl ester experimental animals a RET-3 rectal temperature probe was inserted 30 min after i.p. injections of vehicle or CBGA methyl ester. Mice acclimated to the probe for 5 min before hyperthermia protocol began. Olivetolic acid experimental animals acclimated to the rectal temperature probe for 5 min then received an i.p. injection of vehicle or olivetolic acid immediately before the hyperthermia protocol was initiated. Mouse core body temperature was elevated 0.5°C every 2 min until the onset of first clonic convulsion with loss of posture or until 42.5°C was reached. The dose range (10, 30, or 100 mg/kg) was chosen to provide a point of direct comparison to CBGA, which is anticonvulsant at 30 and 100 mg/kg. Seizure threshold temperatures were compared in GraphPad Prism 8.2 (LaJolla, USA) using Mantel-Cox logrank test and p < 0.05 was considered statistically significant. Following the hyperthermia-induced seizure protocol, the plasma samples were isolated as described for the pharmacokinetic analysis from a cohort of experimental mice.

human GPR55 = target: T3, human GPR55 (Homo sapiens, UniProt Q9Y2T6); assay: GPR55 pERK assay (AlphaScreen SureFire Phospho-ERK1/2); type: cell-based; settings: 10 μM; LPI at EC80; HEK293 cells expressing human GPR55
T3 construct: expressed in transfected cells; host or cells: HEK293
Description: ERK phosphorylation (pERK) was detected using the AlphaScreen® SureFire® Phospho-ERK1/2 assay (Perkin Elmer; Waltham, USA) as previously described (Anderson et al. [2021b]). Briefly, the human embryonic kidney (HEK) 293 cells stably expressing human GPR55 in L-15 media were plated (110,000/well) into a Corning CellBIND (Corning Inc; Corning, USA) clear, flat-bottomed 96-well plate and incubated 20–24 h at 37°C in ambient CO2. Media was aspirated, 50 μL phenol red-free DMEM/F-12 was added to each well and incubated for 2–3 h at 37°C in a humidified 5% CO2 atmosphere. Compounds (10 μM in phenol red-free DMEM/F-12) were added and incubated for 20 min before media was aspirated and lysis buffer was added. Lysates (5 μL) were incubated with reaction mixture (7 μL) for 3.5 h at room temperature. A CLARIOstar plate reader (BMG Labtech; Offenburg, GER) was used to take fluorescence readings over 740 msec (excitation 680 nm, emission 520–620 nm). Fluorescence readings were normalized to those of 4 μM LPI, the endogenous GPR55 agonist. […] Final DMSO concentrations were ≤ 0.2%. Statistical comparisons were made in GraphPad Prism using one-way ANOVA followed by Dunnett’s post hoc and p < 0.05 was considered statistically significant.

[3] = intraperitoneal, read-out: brain penetration
[4] = ip, from AUC values, read-out: Brain-plasma ratio
[5] = ip, brain, converted from ng/mg brain assuming density of 1 g/mL, read-out: Cmax

T1 sequence (Q9P0X4 whole entry): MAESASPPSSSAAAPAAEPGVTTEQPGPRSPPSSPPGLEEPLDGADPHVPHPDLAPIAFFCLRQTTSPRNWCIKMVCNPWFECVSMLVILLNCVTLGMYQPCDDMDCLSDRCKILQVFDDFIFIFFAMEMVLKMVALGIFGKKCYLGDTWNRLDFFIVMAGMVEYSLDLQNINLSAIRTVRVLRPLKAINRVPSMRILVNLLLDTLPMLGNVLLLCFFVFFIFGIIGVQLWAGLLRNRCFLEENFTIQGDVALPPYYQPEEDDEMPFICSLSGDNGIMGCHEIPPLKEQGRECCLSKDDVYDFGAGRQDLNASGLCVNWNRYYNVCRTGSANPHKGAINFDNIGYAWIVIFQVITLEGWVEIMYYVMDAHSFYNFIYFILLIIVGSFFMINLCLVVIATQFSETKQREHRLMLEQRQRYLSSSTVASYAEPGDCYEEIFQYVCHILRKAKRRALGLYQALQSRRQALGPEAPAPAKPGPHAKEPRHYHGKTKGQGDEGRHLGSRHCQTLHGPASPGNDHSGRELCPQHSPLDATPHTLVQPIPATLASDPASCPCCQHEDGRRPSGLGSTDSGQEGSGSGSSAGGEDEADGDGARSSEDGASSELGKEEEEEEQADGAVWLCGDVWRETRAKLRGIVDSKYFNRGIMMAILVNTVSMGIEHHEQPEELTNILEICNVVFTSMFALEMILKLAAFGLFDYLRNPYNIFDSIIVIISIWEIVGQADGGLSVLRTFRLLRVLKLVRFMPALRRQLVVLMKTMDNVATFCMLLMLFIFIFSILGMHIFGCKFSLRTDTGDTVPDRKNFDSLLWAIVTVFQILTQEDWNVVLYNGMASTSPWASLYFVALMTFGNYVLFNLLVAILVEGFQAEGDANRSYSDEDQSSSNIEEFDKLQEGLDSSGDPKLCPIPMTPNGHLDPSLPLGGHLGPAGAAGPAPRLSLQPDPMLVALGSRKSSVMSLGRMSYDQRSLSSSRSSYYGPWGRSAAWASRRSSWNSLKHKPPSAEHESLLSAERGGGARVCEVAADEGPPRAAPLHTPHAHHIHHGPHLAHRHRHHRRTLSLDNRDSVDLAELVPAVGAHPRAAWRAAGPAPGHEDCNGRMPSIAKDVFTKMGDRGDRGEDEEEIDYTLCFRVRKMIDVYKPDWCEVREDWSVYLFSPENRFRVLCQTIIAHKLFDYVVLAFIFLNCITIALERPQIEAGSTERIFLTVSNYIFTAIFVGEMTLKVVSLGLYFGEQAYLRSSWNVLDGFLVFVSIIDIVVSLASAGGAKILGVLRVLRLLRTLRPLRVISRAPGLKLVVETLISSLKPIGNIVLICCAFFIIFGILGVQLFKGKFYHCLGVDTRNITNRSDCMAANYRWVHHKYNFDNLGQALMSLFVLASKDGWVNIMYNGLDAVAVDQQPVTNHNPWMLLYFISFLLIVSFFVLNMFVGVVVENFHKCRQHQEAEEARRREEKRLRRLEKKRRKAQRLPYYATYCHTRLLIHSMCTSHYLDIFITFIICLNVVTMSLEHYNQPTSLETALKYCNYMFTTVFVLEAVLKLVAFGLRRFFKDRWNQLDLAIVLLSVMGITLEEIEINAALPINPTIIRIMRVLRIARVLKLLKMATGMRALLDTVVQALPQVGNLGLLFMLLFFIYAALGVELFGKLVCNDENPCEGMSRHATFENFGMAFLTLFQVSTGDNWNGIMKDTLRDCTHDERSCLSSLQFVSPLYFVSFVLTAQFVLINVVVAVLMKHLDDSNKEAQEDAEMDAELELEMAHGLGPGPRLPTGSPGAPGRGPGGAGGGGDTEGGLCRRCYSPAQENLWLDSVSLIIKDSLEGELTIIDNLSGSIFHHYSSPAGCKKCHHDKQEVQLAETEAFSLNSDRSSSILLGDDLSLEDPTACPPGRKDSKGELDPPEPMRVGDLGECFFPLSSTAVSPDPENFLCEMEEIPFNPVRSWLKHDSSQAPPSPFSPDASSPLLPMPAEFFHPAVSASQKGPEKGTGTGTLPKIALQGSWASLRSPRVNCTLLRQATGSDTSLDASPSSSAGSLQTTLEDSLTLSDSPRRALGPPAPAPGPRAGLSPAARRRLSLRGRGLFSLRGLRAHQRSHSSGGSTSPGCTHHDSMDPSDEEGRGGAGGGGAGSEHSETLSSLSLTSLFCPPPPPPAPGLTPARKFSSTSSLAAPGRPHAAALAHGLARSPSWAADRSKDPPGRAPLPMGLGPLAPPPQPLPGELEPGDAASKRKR
T3 sequence (Q9Y2T6 whole entry): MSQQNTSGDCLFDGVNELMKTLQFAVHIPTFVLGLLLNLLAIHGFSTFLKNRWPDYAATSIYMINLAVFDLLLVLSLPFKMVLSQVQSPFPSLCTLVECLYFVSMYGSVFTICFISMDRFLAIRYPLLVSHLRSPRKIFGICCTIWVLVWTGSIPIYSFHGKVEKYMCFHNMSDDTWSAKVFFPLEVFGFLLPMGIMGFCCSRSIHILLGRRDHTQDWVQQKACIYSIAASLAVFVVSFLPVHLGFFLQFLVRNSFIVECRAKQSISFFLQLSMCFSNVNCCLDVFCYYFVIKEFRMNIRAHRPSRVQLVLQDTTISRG
T2 sequence (O43497 whole entry): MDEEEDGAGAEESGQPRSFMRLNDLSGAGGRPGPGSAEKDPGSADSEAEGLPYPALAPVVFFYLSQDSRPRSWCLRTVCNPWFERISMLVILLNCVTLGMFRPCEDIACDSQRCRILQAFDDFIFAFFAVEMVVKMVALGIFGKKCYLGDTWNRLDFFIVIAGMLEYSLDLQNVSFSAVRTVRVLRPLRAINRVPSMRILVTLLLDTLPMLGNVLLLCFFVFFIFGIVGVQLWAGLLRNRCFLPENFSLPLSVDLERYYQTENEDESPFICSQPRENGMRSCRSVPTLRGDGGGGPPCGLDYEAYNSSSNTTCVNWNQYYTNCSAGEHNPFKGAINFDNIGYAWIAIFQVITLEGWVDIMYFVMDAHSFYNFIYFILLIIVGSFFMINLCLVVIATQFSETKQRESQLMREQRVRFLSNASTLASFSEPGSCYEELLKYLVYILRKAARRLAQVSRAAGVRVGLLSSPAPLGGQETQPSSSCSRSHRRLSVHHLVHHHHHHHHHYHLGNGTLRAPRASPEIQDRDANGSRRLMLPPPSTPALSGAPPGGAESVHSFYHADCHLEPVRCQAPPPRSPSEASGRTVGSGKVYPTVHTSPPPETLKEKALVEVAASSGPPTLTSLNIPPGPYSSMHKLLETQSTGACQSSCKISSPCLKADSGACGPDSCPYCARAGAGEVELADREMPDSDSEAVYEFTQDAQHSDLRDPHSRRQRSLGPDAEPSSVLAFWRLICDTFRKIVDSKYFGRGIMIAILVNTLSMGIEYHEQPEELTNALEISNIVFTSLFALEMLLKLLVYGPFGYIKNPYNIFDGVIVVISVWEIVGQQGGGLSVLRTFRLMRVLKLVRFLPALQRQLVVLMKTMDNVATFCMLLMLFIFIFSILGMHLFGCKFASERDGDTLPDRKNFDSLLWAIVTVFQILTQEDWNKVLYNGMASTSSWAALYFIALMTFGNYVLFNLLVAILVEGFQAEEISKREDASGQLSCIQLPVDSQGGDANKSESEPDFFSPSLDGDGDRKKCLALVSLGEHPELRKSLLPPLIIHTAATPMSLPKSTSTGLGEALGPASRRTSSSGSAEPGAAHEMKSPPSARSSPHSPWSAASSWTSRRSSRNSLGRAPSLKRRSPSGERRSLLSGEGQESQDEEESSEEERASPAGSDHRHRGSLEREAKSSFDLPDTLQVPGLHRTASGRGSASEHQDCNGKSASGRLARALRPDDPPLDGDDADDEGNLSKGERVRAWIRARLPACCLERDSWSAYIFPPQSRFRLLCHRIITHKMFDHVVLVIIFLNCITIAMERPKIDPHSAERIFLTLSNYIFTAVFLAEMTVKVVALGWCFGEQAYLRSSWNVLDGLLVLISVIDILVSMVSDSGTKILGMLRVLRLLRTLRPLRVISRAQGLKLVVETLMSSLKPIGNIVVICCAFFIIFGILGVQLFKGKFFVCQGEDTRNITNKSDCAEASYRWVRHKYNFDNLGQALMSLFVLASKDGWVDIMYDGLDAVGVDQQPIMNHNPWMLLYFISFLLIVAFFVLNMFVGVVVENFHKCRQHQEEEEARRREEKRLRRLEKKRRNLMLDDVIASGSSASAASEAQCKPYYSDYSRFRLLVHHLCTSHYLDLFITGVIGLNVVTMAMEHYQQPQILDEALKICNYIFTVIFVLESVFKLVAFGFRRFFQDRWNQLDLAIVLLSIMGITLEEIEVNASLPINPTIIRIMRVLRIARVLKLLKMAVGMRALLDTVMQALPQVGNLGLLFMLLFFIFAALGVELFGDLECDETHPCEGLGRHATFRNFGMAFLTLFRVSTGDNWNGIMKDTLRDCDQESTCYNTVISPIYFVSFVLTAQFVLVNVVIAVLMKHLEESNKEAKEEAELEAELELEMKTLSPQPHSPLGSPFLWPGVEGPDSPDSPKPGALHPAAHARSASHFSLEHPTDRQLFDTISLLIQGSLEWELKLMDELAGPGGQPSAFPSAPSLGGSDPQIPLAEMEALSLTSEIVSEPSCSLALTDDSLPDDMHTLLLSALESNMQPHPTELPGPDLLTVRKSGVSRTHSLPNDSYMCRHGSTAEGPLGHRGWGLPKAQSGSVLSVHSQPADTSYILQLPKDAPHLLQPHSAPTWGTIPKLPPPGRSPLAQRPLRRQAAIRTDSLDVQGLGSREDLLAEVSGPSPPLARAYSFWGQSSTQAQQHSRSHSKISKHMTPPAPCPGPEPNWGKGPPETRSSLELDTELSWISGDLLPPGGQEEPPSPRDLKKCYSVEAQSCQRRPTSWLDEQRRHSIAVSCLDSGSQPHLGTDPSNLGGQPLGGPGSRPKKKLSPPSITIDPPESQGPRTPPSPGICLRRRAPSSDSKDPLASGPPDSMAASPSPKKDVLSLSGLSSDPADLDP

CCCCCc1cc(O)cc(O)c1C(=O)O [Olivetolic acid]
inhibition of CaV3.3 (change in intracellular calcium relative to vehicle) (CaV3.3): Neither CBGA methyl ester nor olivetolic acid had any effect; also recorded: ineffective | Kp [1, 3]: 0.01 | Kp [1, 4]: 0.01 | Cmax ([1]; brain): 0.45 ± 0.06 ng/mg brain | Cmax [1, 5]: 450 ± 60 ng/mL | AUC ([1]; ip, brain): 217 ng·h/mL | Tmax ([1]; ip, brain): 15 min | Cmax ([1]; ip, plasma, read-out: Cmax): 65000 ± 4000 ng/mL | AUC ([1]; ip, plasma): 18400 ng·h/mL | Tmax ([1]; ip, plasma): 15 min | half-life ([1]; brain, ip): < 15 min | half-life ([1]; plasma, ip): < 15 min | inhibition of CaV3.1 (change in intracellular calcium relative to vehicle) (CaV3.1): Neither CBGA methyl ester nor olivetolic acid had any effect; also recorded: ineffective | Plasma concentration ([2]; dose 10 mg/kg i.p.): 65000 ± 5000 ng/mL | Plasma concentration ([2]; dose 30 mg/kg i.p.): 89000 ± 12000 ng/mL | Plasma concentration ([2]; dose 100 mg/kg i.p.): 116000 ± 27000 ng/mL | inhibition of GPR55 activity (pERK relative to agonist LPI alone) (human GPR55): did not inhibit; also recorded: ineffective

CCCCCc1cc(O)c(C/C=C(\C)CCC=C(C)C)c(O)c1C(=O)OC [CBGA methyl ester]
inhibition of CaV3.3 (change in intracellular calcium relative to vehicle) (CaV3.3): Neither CBGA methyl ester nor olivetolic acid had any effect; also recorded: no effect | Kp [1, 3]: 0.13 | Kp [1, 4]: 0.13 | improvement of brain-plasma ratio over CBGA ([1]; compared with CBGA of Anderson et al. 2019b): nearly a seven fold improvement | Cmax [1, 5]: 210 ± 30 ng/mL | AUC ([1]; ip, brain): 367 ng·h/mL | Tmax ([1]; ip, brain): 30 min | Cmax ([1]; ip, plasma, read-out: Cmax): 1300 ± 300 ng/mL | AUC ([1]; ip, plasma): 2850 ng·h/mL | Tmax ([1]; ip, plasma): 45 min | half-life ([1]; brain, ip): 62 min | half-life ([1]; plasma, ip): 81 min | inhibition of CaV3.1 (change in intracellular calcium relative to vehicle) (CaV3.1): Neither CBGA methyl ester nor olivetolic acid had any effect; also recorded: no effect | Plasma concentration ([2]; dose 10 mg/kg i.p.): 837 ± 212 ng/mL | Plasma concentration ([2]; dose 30 mg/kg i.p.): 4700 ± 600 ng/mL | Plasma concentration ([2]; dose 100 mg/kg i.p.): 6200 ± 600 ng/mL | inhibition of GPR55 activity (pERK relative to agonist LPI alone) (human GPR55): did not inhibit; also recorded: no effect
